In the supplement of paper PMC10307832:

Assays:
Assay in all cases: relative viability (nuclei count vs DMSO), 5 days (fraction); higher = more cells survive
[1] = compound: O=C(O)c1ccc2c(c1)nc(Nc1cccc(Cl)c1)c1ccncc12 [Silmitasertib] + CC(=O)c1c(C)c2cnc(Nc3ccc(N4CCNCC4)cn3)nc2n(C2CCCC2)c1=O [Palbociclib] (partner 0.5 µM)
Procedure, shortened: (§1)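 Cells from lung cancer lines were seeded into 1536-well plates and, one day later, dosed by pin tool. Treatments were either a single drug or a fixed dose of an anchor drug with five library-drug doses (not always all listed) in √10 steps. After 5 days, nuclei were stained in a one-step fixation (final 0.05% Triton X-100, 1% formaldehyde, 1 ug/ml Hoechst) and counted on 4× images, and relative viability is the treated-to-vehicle nuclei ratio, as the median of duplicate plates.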

[2] = compound: O=C(O)c1ccc2c(c1)nc(Nc1cccc(Cl)c1)c1ccncc12 [Silmitasertib] + CS(=O)(=O)CCNCc1ccc(-c2ccc3ncnc(Nc4ccc(OCc5cccc(F)c5)c(Cl)c4)c3c2)o1 [Lapatinib] (partner 2 µM)
Procedure, shortened: as §1

[3] = compound: O=C(O)c1ccc2c(c1)nc(Nc1cccc(Cl)c1)c1ccncc12 [Silmitasertib] + N=C(N)NC(=N)NCCc1ccccc1 [Phenformin] (partner 250 µM)
Procedure, shortened: as §1

[4] = compound: O=C(O)c1ccc2c(c1)nc(Nc1cccc(Cl)c1)c1ccncc12 [Silmitasertib] + Nc1nc2[nH]cc(CCc3ccc(C(=O)N[C@@H](CCC(=O)O)C(=O)O)cc3)c2c(=O)[nH]1 [Pemetrexed] (partner 0.2 µM)
Procedure, shortened: as §1

Silmitasertib + Olaparib = compound: O=C(O)c1ccc2c(c1)nc(Nc1cccc(Cl)c1)c1ccncc12 [Silmitasertib] + O=C(c1cc(Cc2n[nH]c(=O)c3ccccc23)ccc1F)N1CCN(C(=O)C2CC2)CC1 [Olaparib] (partner 8 µM)
Procedure, shortened: as §1

| Cell Line | relative viability ([1]; first compound 0.04 µM) | relative viability ([1]; first compound 1.265 µM) | relative viability ([1]; first compound 4 µM) | relative viability ([2]; first compound 0.04 µM) | relative viability ([2]; first compound 0.4 µM) | relative viability ([2]; first compound 1.265 µM) | relative viability ([2]; first compound 4 µM) | relative viability ([3]; first compound 0.04 µM) | relative viability ([3]; first compound 1.265 µM) | relative viability ([3]; first compound 4 µM) | relative viability ([4]; first compound 0.04 µM) | relative viability ([4]; first compound 1.265 µM) | relative viability ([4]; first compound 4 µM) | relative viability (Silmitasertib + Olaparib; first compound 0.04 µM) | relative viability (Silmitasertib + Olaparib; first compound 0.4 µM) | relative viability (Silmitasertib + Olaparib; first compound 1.265 µM) | relative viability (Silmitasertib + Olaparib; first compound 4 µM) | relative viability ([1]; first compound 0.4 µM) | relative viability ([3]; first compound 0.4 µM) | relative viability ([4]; first compound 0.4 µM) |
| --- | --- | --- | --- | --- | --- | --- | --- | --- | --- | --- | --- | --- | --- | --- | --- | --- | --- | --- | --- | --- |
| LK-2 | 0.593 | 0.509 | 0.397 | 1.12 | 0.928 | 0.867 | 0.718 | 0.485 | 0.415 | 0.271 | 0.254 | 0.084 | 0.297 | 0.798 | 0.283 | 0.663 | 0.346 |  |  |  |
| LOU-NH91 | 0.519 | 0.579 | 0.553 | 0.747 | 0.649 | 0.548 | 0.516 | 0.812 | 0.584 | 0.423 | 0.357 | 0.368 | 0.457 | 0.941 | 0.839 | 0.8 | 0.814 | 0.522 | 0.617 | 0.383 |
| LU99A | 0.359 | 0.325 | 0.404 | 1.04 | 1.03 | 0.613 | 0.588 | 0.883 | 0.848 | 0.518 | 0.187 | 0.148 | 0.168 | 0.277 | 0.287 | 0.216 | 0.204 | 0.397 | 0.883 | 0.168 |
| LXF-289 | 0.606 | 0.657 | 0.66 | 0.931 |  | 0.999 | 1 | 0.53 | 0.58 | 0.382 | 0.968 | 0.8 | 0.824 | 0.995 |  | 0.935 | 1.07 |  |  |  |
| NCI-H23 | 0.467 | 0.423 | 0.393 | 1.45 |  | 0.73 | 0.355 | 0.639 | 0.675 | 0.403 | 0.779 | 0.57 | 0.303 | 0.351 | 0.217 | 0.272 | 0.251 | 0.444 |  | 0.389 |
| NCI-H322M | 0.411 | 0.422 | 0.351 | 0.668 | 0.549 | 0.42 | 0.387 | 0.783 | 0.603 | 0.384 | 0.666 | 0.595 | 0.482 | 0.7 | 0.608 | 0.456 | 0.39 | 0.486 | 0.761 | 0.536 |
| NCI-H358 | 0.133 | 0.134 | 0.125 | 0.448 | 0.57 | 0.507 | 0.35 | 0.371 | 0.325 | 0.225 | 0.186 | 0.18 | 0.131 | 0.696 | 0.396 | 0.483 | 0.36 | 0.128 | 0.272 | 0.164 |
| NCI-H460 | 0.203 | 0.189 | 0.075 | 1.21 | 0.997 | 1.02 | 0.305 | 0.523 | 0.583 | 0.414 | 0.0675 | 0.0651 | 0.0575 | 0.387 | 0.269 | 0.553 | 0.575 | 0.25 | 0.525 | 0.0541 |
| NCI-H520 | 0.269 | 0.172 | 0.245 | 0.93 | 0.902 | 0.773 | 0.438 | 0.677 | 0.605 | 0.429 | 0.716 | 0.694 | 0.566 | 0.365 | 0.318 | 0.295 | 0.262 | 0.238 | 0.492 | 0.716 |
| NCI-H647 | 0.505 | 0.33 | 0.282 | 1.37 | 0.801 | 0.716 | 0.328 | 0.513 | 0.477 | 0.189 | 0.183 | 0.148 | 0.134 | 0.625 | 0.431 | 0.57 | 0.325 | 0.376 | 0.303 | 0.16 |
| NCI-H650 | 0.319 | 0.266 | 0.259 | 1.13 | 0.722 | 0.525 | 0.272 | 0.542 | 0.377 | 0.235 | 0.981 | 0.912 | 0.659 | 0.4 | 0.232 | 0.317 | 0.294 | 0.236 | 0.339 | 0.433 |
| NCI-H661 | 0.421 | 0.407 | 0.359 | 0.522 |  | 0.477 | 0.661 | 0.287 | 0.283 | 0.276 | 0.93 | 0.865 | 0.666 | 0.735 | 0.679 | 0.629 | 0.493 | 0.511 | 0.339 | 0.966 |
| NCI-H838 | 0.253 | 0.18 | 0.199 | 1.28 |  | 0.753 | 0.465 | 0.708 | 0.513 | 0.362 | 0.231 | 0.227 | 0.213 | 0.849 | 0.521 | 0.635 | 0.491 | 0.25 |  | 0.234 |
| NCI-H1355 | 0.403 | 0.358 | 0.366 | 1.08 |  | 0.883 | 0.726 | 0.457 | 0.46 | 0.43 | 1.04 | 1.01 | 0.852 | 0.727 |  | 0.698 | 0.615 |  |  |  |
| NCI-H1395 | 0.631 | 0.592 | 0.597 | 1.29 | 0.672 | 0.919 | 0.68 | 0.495 | 0.49 | 0.373 | 0.975 | 0.841 | 0.654 | 0.463 | 0.461 | 0.459 | 0.469 | 0.617 | 0.436 | 0.756 |
| NCI-H1437 | 0.305 | 0.221 | 0.222 | 0.865 |  | 0.483 | 0.347 | 0.327 | 0.305 | 0.278 | 0.337 | 0.254 | 0.228 | 0.648 | 0.645 | 0.521 | 0.483 | 0.26 | 0.334 | 0.3 |
| NCI-H1650 | 0.5 | 0.25 | 0.186 | 1.4 | 0.825 | 0.671 | 0.23 | 0.49 | 0.283 | 0.151 | 0.339 | 0.387 | 0.319 | 0.833 | 0.798 | 0.646 | 0.493 | 0.436 | 0.412 | 0.454 |
| NCI-H1651 | 0.495 | 0.534 | 0.528 | 1.08 | 0.997 | 0.99 | 0.626 | 0.339 | 0.378 | 0.363 | 0.625 | 0.247 | 0.665 | 0.171 | 0.139 | 0.184 | 0.186 | 0.516 | 0.321 | 0.38 |
| NCI-H1666 | 0.617 | 0.578 | 0.61 | 0.734 | 0.564 | 0.452 | 0.319 | 0.571 | 0.607 | 0.511 | 0.89 | 0.72 | 0.63 | 0.713 | 0.577 | 0.566 | 0.61 | 0.654 | 0.582 | 0.795 |
| NCI-H1734 | 0.343 | 0.323 | 0.36 | 1.14 |  | 0.948 | 0.785 | 0.499 | 0.42 | 0.357 | 0.443 | 0.423 | 0.386 | 0.607 | 0.373 | 0.583 | 0.549 | 0.326 | 0.358 | 0.336 |
| NCI-H1755 | 0.436 | 0.456 | 0.447 | 1.03 | 0.979 | 1.07 | 1.16 | 0.643 | 0.637 | 0.586 | 0.422 | 0.383 | 0.386 | 0.892 | 0.783 | 0.858 | 1.01 | 0.443 | 0.601 | 0.489 |
| NCI-H1792 | 0.674 | 0.708 | 0.698 | 0.886 | 0.711 | 0.874 | 0.608 | 0.29 | 0.327 | 0.103 | 0.772 | 0.78 | 0.331 | 0.308 | 0.421 | 0.431 | 0.281 | 0.574 | 0.24 | 0.78 |
| NCI-H1793 | 0.309 | 0.32 | 0.303 | 0.979 | 0.728 | 0.437 | 0.488 | 0.396 | 0.346 | 0.373 | 1.08 | 0.719 | 0.425 | 0.924 | 0.715 | 0.769 | 0.625 | 0.319 | 0.29 | 0.851 |
| NCI-H1915 | 0.58 | 0.517 | 0.297 | 0.994 |  | 1.02 | 0.397 | 0.362 | 0.37 | 0.249 | 0.503 | 0.429 | 0.302 | 0.262 |  | 0.263 | 0.201 |  |  |  |
| NCI-H1944 | 0.335 | 0.314 | 0.383 | 0.826 | 0.807 | 0.822 | 0.816 | 0.21 | 0.22 | 0.186 | 0.551 | 0.615 | 0.77 | 0.404 | 0.33 | 0.495 | 0.587 | 0.359 | 0.211 | 0.447 |
| NCI-H1975 | 0.645 | 0.192 | 0.499 | 0.901 | 0.731 | 0.719 | 0.739 | 0.443 | 0.382 | 0.394 | 0.294 | 0.287 | 0.219 | 0.818 |  | 0.658 | 0.832 |  |  |  |
| NCI-H1993 | 0.57 | 0.525 | 0.44 | 0.815 | 0.753 | 0.887 | 0.803 | 0.547 | 0.543 | 0.566 | 0.616 | 0.598 | 0.505 | 1.24 | 0.804 | 0.96 | 0.831 | 0.576 | 0.447 | 0.524 |
| NCI-H2009 | 0.234 | 0.193 | 0.203 | 1.04 | 0.636 | 0.85 | 0.341 | 0.542 | 0.374 | 0.312 | 1.09 | 1.13 | 0.908 | 0.747 | 0.638 | 0.756 | 0.595 | 0.199 | 0.487 | 0.98 |
